In test [1] the test system is Trichophyton mentagrophytes. The experiment in a line: Antimycotic activity in vitro (series dilution test), Trichophyton mentagrophytes. Format: cell-based. Particulars: growth no longer detectable, Sabourauds' milieu d'epreuve, 28° C, 24 to 96 hours, read-out: Minimum inhibitory concentration.
For another test, the system named is Candida albicans. The experiment in a line: Antimycotic activity in vitro (series dilution test), Candida albicans. The test is classed as cell-based. As to conditions: growth no longer detectable, Sabourauds' milieu d'epreuve, 28° C, 24 to 96 hours, read-out: Minimum inhibitory concentration.
In another test the test system is Penicillium commune. The experiment in a line: Antimycotic activity in vitro (series dilution test), Penicillium commune. As to conditions: growth no longer detectable, Sabourauds' milieu d'epreuve, 28° C, 24 to 96 hours, read-out: Minimum inhibitory concentration. The test is classed as cell-based.
Another test has as its system Candida. As to the kind of experiment: Action in candidosis of mice. The test is classed as in vivo. Particulars: mice SPF-CF1; 100 mg/kg orally one hour before and seven hours after i.v. infection; survivors on 6th day. The procedure:
b. Candidosis of mice Mice of type SPF-CF1 were infected intravenously with 1-2 × 10^6 of logarithmically growing Candida cells which were suspended in physiological sodium chloride solution. One hour before and seven hours after the infection, the animals were treated orally, in each case with 100 mg of the preparations/kg of body weight. Untreated animals died of the infection 3 to 6 days after the infection. The survival rate on the 6th day after infection was about 5% in the case of untreated control animals.

Molecules are shown by their SMILES. In brackets after ≈: the same amount, converted by molar mass.

As for `CC(C)(C)C(O)C(Cn1cncn1)Oc1cccc(Cl)c1` (stereo not drawn), the MIC (in test [1]; in the test with Candida albicans; with Penicillium commune) was greater than 64 µg/mL throughout. Turning to `CC(C)(C)C(O)C(Cn1cncn1)Oc1ccc(Cl)cc1Cl` (stereo not drawn), the results for the MIC (in test [1]; with Penicillium commune) were 4 µg/mL (≈ 11.6 µM) and greater than 64 µg/mL, respectively. In the case of `Cc1cccc(OC(Cn2cncn2)C(O)C(C)(C)C)c1C` (stereo not drawn), the MIC in the test with Candida albicans and in the test on Penicillium commune was 64 µg/mL (≈ 211 µM) in each case.

Turning to `CC(C)(C)C(O)C(Cn1cncn1)Oc1ccc(F)cc1` (stereo not drawn), the MIC (in test [1]; with Penicillium commune) was 64 µg/mL (≈ 218 µM) throughout. As for `CC(C)(C)C(O)C(Cn1cncn1)Oc1ccccc1Cl` (stereo not drawn) [Example 4], in the test with Candida, the “Action in candidosis of mice” value is recorded as “++++ (good action = 80% survivors on the 6th day after infection)”. Still for that read-out and setting: the same measure for `CC(C)(C)C(O)C(Cn1cncn1)Oc1cc(Cl)ccc1Cl` (stereo not drawn) [Example 7]: “++++ (good action = 80% survivors on the 6th day after infection)”. For the molecule `CC(C)(C)C(O)C(Cn1cncn1)Oc1ccccc1Cl` (stereo not drawn) [drawing 4], the results for the MIC (in test [1]; with Penicillium commune) were 32 µg/mL (≈ 103 µM) and greater than 64 µg/mL, respectively.

For the molecule `CC(C)(C)C(O)C(Cn1cncn1)Oc1cc(Cl)ccc1Cl` (stereo not drawn) [drawing 6], the MIC in test [1] is 32 µg/mL (≈ 93 µM); with Penicillium commune, greater than 64 µg/mL.

For the origin of these results see patent US3993765A, “1-Propyl-triazolyl antimycotic compositions and methods of treating mycoses” (Bayer Aktiengesellschaft, priority 1973, dated 1976).
